Experimental data reported in patent US6685913B1, “Lipid soluble radioactive metal chelates for tumor therapy” (Thomas Jefferson University, priority 1999, dated 2004).
Entries after “also recorded” stand apart in the source; their conditions may differ.

Legend:
[1] = Distribution of radioactivity in tumor and organs at sacrifice; format: in vivo, nude mice
Description: (§1) These organs were then weighed.

[2] = cited from earlier work
[3] = system: human breast cancer cells T47D; assay: Intratumoral injection study on T47D tumor-bearing nude mice: tumor size; format: in vivo; conditions: one month
Method: as §1
Indium-111-Merc was prepared also by a method described previously. (Thakur et al, J Nucl Med 26: 518-523, 1985). Briefly, to one ml 0.067 M phosphate buffer pH 7.4, a required quantity of Indium-111-chloride was added followed by 50 μg Merc in 50 μl 0.067 M phosphate buffer pH 7.4. The reaction mixture was vortexed, and resultant Indium-111-Merc was extracted in chloroform or methylene chloride. This was evaporated to dryness, and the complex was taken up in 50 μl ethanol and 150 μl 0.9% NaCl. A known amount of radioactivity in 50 μl was then injected directly into the tumor in each mouse.
For treatment with Indium-111-Merc, human breast cancer cells (5×10^6) T47D were implanted similarly. These were also allowed to grow to up to 0.5 cm in diameter.

[4] = Retention of radioactivity after intratumoral injection, first study (gamma camera, ionization chamber); format: in vivo, athymic nude mice
[5] = Body weight, additional studies; format: in vivo, nude mice; conditions: treatment period
Method: Human prostate and human breast tumors were grown in two separate groups of nude mice. Six mice in each group were divided in two subgroups of 3 mice each. Three mice were treated with intratumoral injections of either Indium-111-oxine or Indium-111-Merc. Each group of mice was then placed in rodent cages separately and cared for with regular diet and water ad lib. Each day the animals were weighed, and tumor diameter was measured three times with a Vernier caliper.

[6] = system: cells; conditions: cited from earlier work
[7] = system: human prostate cancer cells DU145; conditions: one month
Method: Additional feasibility studies were performed using two lipid soluble agents, Indium-111-oxine and Indium-111-Mercaptopyridine-N-oxide (Merc). Human prostate and human breast tumors were grown in two separate groups of nude mice. Six mice in each group were divided in two subgroups of 3 mice each. Three mice were treated with intratumoral injections of either Indium-111-oxine or Indium-111-Merc. Each group of mice was then placed in rodent cages separately and cared for with regular diet and water ad lib. Each day the animals were weighed, and tumor diameter was measured three times with a Vernier caliper.
Radioactivity received by each animal was carefully measured, and each day the amount of radioactivity retained in the animal body was measured using an energy calibrated radiation dose calibrator. Two weeks after the first injection, a second dose of the same agent was readministered, also intratumorally and the procedure was followed as described above, for the next two weeks. […] Indium-111 associated with each tissue was counted, and the radioactivity distributed in each organ was calculated as the percent of the total radioactivity retrained in each animal. Histology on critical organs, such as the liver, bladder, and kidney, as well as tumor histology, was assessed in treated animals and in untreated control animals. […]

[8] = system: human colorectal carcinoma cells LS174T; conditions: single intratumoral injection, day 22, control tumor 3.2 cm
Method: Tumors were allowed to grow to approximately 0.5 cm in diameter.
On day one, two of the four tumor-bearing mice received a single intratumoral injection of approximately 100 μl Indium-111-oxine. Mice were placed in an ionization chamber, and radioactivity was recorded after the injection and then daily for 28 days. On each day, radioactivity was corrected for decay, and the percent of injected dose retained in the animal was calculated and recorded. Animals were also weighed daily in a calibrated balance.
On day one, all four mice were lightly anesthetized and photographs taken. Mice receiving Indium-111-oxine were also imaged with a gamma camera 28 days later. This qualitatively recorded the distribution of radioactivity, 28 days after it was injected.The control animals received a single intratumoral injection of 100 μl of 25% ethanol in 0.9% NaCl. Two radioactive animals and the control animals were then cared for in two separated cages and allowed to eat and drink at liberty.
On day 22, the two mice treated with Indium-111-oxine received 100 μl of Indium-111-Merc each in two places in tumors. The control animals also received two intratumoral injection of 0.05 M phosphate buffer pH−7.4.
As before, the mice were weighed daily and radioactivity remaining in their bodies was measured for an additional 10 days.

| Compound | injected activity retained in tumor at sacrifice ([1]; T47D tumor-bearing mice) | kidney activity at sacrifice ([1]; T47D tumor-bearing mice) | liver activity at sacrifice ([1]; T47D tumor-bearing mice) | stability in plasma [2] | tumor growth in treated mice (tumor size versus time, FIG. 5) ([3]; T47D tumor-bearing nude mice) | average tumor growth in the treated mice ([3]; T47D tumors, two intratumoral doses two weeks apart, untreated controls 477%) | radioactivity still in the tumor (gamma camera image) ([4]; 10 days after intratumoral Indium-111-Merc injection) | radioactivity retained in animal body ([4]; ten days after the injection of Indium-111-Merc) | body weight change ([5]; T47D tumor-bearing mice) | labeling of cells in the presence of plasma [6] | kidney uptake at sacrifice ([1]; DU145 tumor-bearing mice) | liver uptake at sacrifice ([1]; DU145 tumor-bearing mice) | injected activity retained in tumor at sacrifice ([1]; DU145 tumor-bearing mice, corrected for decay) | tumor growth in treated mice (tumor size versus time, FIG. 4) ([7]; DU145 tumor-bearing nude mice) | average tumor growth during the treatment period ([7]; DU145 tumors, two intratumoral doses two weeks apart, untreated mice 200%) | tumor growth in treated animal [8] | radioactivity retained in the tumor (gamma camera image) ([4]; 22 days after intratumoral Indium-111-oxine injection) | body weight change ([5]; DU145 tumor-bearing mice, on the average) |
| --- | --- | --- | --- | --- | --- | --- | --- | --- | --- | --- | --- | --- | --- | --- | --- | --- | --- | --- |
| Indium-111-Merc (2-Mercaptopyridine-N-oxide) | 92.97% | 4.03% | 1.02% | does not break down in plasma | arrested | 172% | a major proportion | all | gained some body weight | can label cells in the presence of plasma |  |  |  |  |  |  |  |  |
| [111In+3].[O-]c1cccc2cccnc12.[O-]c1cccc2cccnc12.[O-]c1cccc2cccnc12 [Indium-111-oxine, Indium-111-oxine (8-hydroxyquinoline)] |  |  |  |  |  |  |  |  |  | not capable of binding cells in plasma; also recorded: cannot efficiently label cells | 7.5% | 5.4% | 86.5% | arrested | 117% | has not grown | a major proportion; also recorded: nearly all | none of the treated or untreated mice either gained or lost body weight |
